Data: patent US20080269202A1, “Novel 2,3-benzodiazepine derivatives and their use as antipsychotic agents” (Teva Pharmaceutical Industries Ltd., priority 2007, published 2008)
Structures can show the parent of a compound that is named as a salt.

Structure (SMILES) | melting point
CNC(=O)N1N=C(c2ccc(N)cc2)c2cc(OC)c(OC)cc2C[C@@H]1C | 130 to 134 °C
CNC(=O)N1N=C(c2ccc(N)c(C)c2)c2cc(OC)c(OC)cc2C[C@@H]1C | 157 to 159 °C
CNC(=O)N1N=C(c2cc(C)c(N)c(C)c2)c2cc(OC)c(OC)cc2C[C@H]1C | 110 to 113 °C
CCNC(=O)N1N=C(c2ccc(N)cc2)c2cc(OC)c(OC)cc2C[C@H]1C | 122 to 124 °C
CCNC(=O)N1N=C(c2ccc(N)c(C)c2)c2cc(OC)c(OC)cc2C[C@H]1C | 107 to 110 °C
CCCNC(=O)N1N=C(c2ccc(N)cc2)c2cc(OC)c(OC)cc2C[C@H]1C | 101 to 104 °C
CCCNC(=O)N1N=C(c2ccc(N)c(C)c2)c2cc(OC)c(OC)cc2C[C@H]1C | 92 to 95 °C
COc1cc2c(cc1OC)C(c1ccc(N)c(C)c1)=NN(C(=O)NC(C)C)[C@H](C)C2 | 115 to 117 °C
COc1cc2c(cc1OC)C(c1ccc(N)cc1)=NN(C(=O)NC1CC1)[C@H](C)C2 | 116 to 119 °C
COc1cc2c(cc1OC)C(c1ccc(N)c(C)c1)=NN(C(=O)NC1CC1)[C@H](C)C2 | 112 to 114 °C
COc1cc2c(cc1OC)C(c1ccc(N)cc1)=NN(C(=O)N(C)C)[C@H](C)C2 | 258 to 260 °C
CNC(=O)N1N=C(c2ccccc2[N+](=O)[O-])c2cc(OC)c(OC)cc2CC1C (stereo not drawn) | 174 to 176 °C
CNC(=O)N1N=C(c2cccc([N+](=O)[O-])c2)c2cc(OC)c(OC)cc2CC1C (stereo not drawn) | 83 to 85 °C
CNC(=O)N1N=C(c2cccc(Cl)c2)c2cc(OC)c(OC)cc2CC1C (stereo not drawn) | 90 to 91 °C
CNC(=O)N1N=C(c2ccc(Cl)cc2)c2cc(OC)c(OC)cc2CC1C (stereo not drawn) | 164 to 166 °C
CNC(=O)N1N=C(c2ccc(F)cc2)c2cc(OC)c(OC)cc2CC1C (stereo not drawn) | 80 to 83 °C
COc1cc2c(cc1OC)C(c1ccc([N+](=O)[O-])cc1)=NN(C(=O)N(C)C)C(C)C2 (stereo not drawn) | 92 to 96 °C
CNC(=O)N1N=C(c2ccccc2)c2cc(OC)c(OC)cc2CC1C (stereo not drawn) | 86 to 88 °C
CNC(=O)N1N=C(c2ccc(OC)c(OC)c2)c2cc(OC)c(OC)cc2CC1C (stereo not drawn) | 185 to 186 °C
COc1cc2c(cc1OC)C(c1cccc(Cl)c1)=NN(c1nc(C)c(C)s1)C(C)C2 (stereo not drawn) (as salt: HCl) [Example 11] | 174 to 176 °C
CNC(=O)N1N=C(c2ccc(N)cc2)c2cc(OC)c(OC)cc2CC1C (racemic) | 105 to 107 °C
CNC(=O)N1N=C(c2cccc(N)c2)c2cc(OC)c(OC)cc2CC1C (racemic) | 103 to 108 °C
CNC(=O)N1N=C(c2ccccc2N)c2cc(OC)c(OC)cc2CC1C (racemic) | 88 to 91 °C
CCNC(=O)N1N=C(c2ccc(N)cc2)c2cc(OC)c(OC)cc2CC1C (racemic) | 169 to 170 °C
COc1cc2c(cc1OC)C(c1ccc(N)cc1)=NN(C(=O)NC(C)C)C(C)C2 (racemic) | 109 to 111 °C

Structure (SMILES) | melting point
COc1cc2c(cc1OC)C(c1ccc(N)cc1)=NN(C(=O)NC1CC1)C(C)C2 (racemic) | 120 to 123 °C
CCCCNC(=O)N1N=C(c2ccc(N)cc2)c2cc(OC)c(OC)cc2CC1C (racemic) | 204 to 207 °C
CNC(=O)N1N=C(c2ccc(N)c(C)c2)c2cc(OC)c(OC)cc2CC1C (racemic) | 119 to 122 °C
CNC(=O)N1N=C(c2ccc(N)c(Cl)c2)c2cc(OC)c(OC)cc2CC1C (racemic) | 119 to 120 °C
CNC(=S)N1N=C(c2ccc(N)cc2)c2cc(OC)c(OC)cc2CC1C (racemic) | 235 to 237 °C
COc1cc2c(cc1OC)C(c1ccc(N)cc1)=NN(c1nccs1)C(C)C2 (racemic) [Example 136] | 119 to 122 °C
COc1cc2c(cc1OC)C(c1ccc(N)cc1)=NN(c1nc(C)cs1)C(C)C2 (racemic) [Example 137] | 122 to 124 °C
COc1cc2c(cc1OC)C(c1ccc(N)cc1)=NN(c1ncc(C)s1)C(C)C2 (racemic) [Example 138] | 120 to 122 °C
COc1cc2c(cc1OC)C(c1ccc(N)cc1)=NN(c1nc(C)c(C)s1)C(C)C2 (racemic) [Example 139] | 121 to 124 °C
COc1cc2c(cc1OC)C(c1ccc(N)c(C)c1)=NN(c1nccs1)C(C)C2 (racemic) [Example 140] | 109 to 113 °C
COc1cc2c(cc1OC)C(c1ccc(N)cc1)=NN(C1=NCCS1)C(C)C2 (racemic) [Example 141] | 121 to 123 °C
COc1cc2c(cc1OC)C(c1ccc(N)cc1)=NN(C1=NC(=O)CS1)C(C)C2 (racemic) [Example 142] | 166 to 168 °C
COc1cc2c(cc1OC)C(c1ccc(N)cc1)=NN(C1=NC(=O)C(C)S1)C(C)C2 (racemic) [Example 143] | 184 to 188 °C
COc1cc2c(cc1OC)C(c1ccc(N)cc1)=NN(c1nncs1)C(C)C2 (racemic) [Example 144] | 152 to 153 °C
COc1cc2c(cc1OC)C(c1ccc(N)cc1)=NN(c1nnc(C)s1)C(C)C2 (racemic) [Example 145] | 220 to 222 °C
CCc1nnc(N2N=C(c3ccc(N)cc3)c3cc(OC)c(OC)cc3CC2C)s1 (racemic) [Example 146] | 208 to 209 °C
COc1cc2c(cc1OC)C(c1ccc(N)c(C)c1)=NN(c1nncs1)C(C)C2 (racemic) [Example 147] | 108 to 110 °C
COc1cc2c(cc1OC)C(c1ccc(N)c(Cl)c1)=NN(c1nncs1)C(C)C2 (racemic) [Example 148] | 125 to 130 °C
CCOc1cc2c(cc1OCC)C(c1ccc(N)cc1)=NN(c1nncs1)C(C)C2 (racemic) [Example 149] | 108 to 113 °C
COc1cc2c(cc1OC)C(c1ccc(N)cc1)=NN(c1nnco1)C(C)C2 (racemic) [Example 150] | 100 to 105 °C
COc1cc2c(cc1OC)C(c1ccc(N)cc1)=NN(c1nnc(C)o1)C(C)C2 (racemic) [Example 151] | 209 to 211 °C
COc1cc2c(cc1OC)C(c1ccc(N)cc1)=NN(c1nc(=O)n(C)s1)C(C)C2 (racemic) [Example 152] | 260 to 262 °C
COc1cc2c(cc1OC)C(c1ccc(N)cc1)=NN(C1=NCCO1)C(C)C2 (racemic) [Example 153] | 135 to 137 °C
COc1cc2c(cc1OC)C(c1ccc(N)cc1)=NN(C1=NNC(=O)CS1)C(C)C2 (racemic) [Example 154] | 159 to 163 °C
COc1cc2c(cc1OC)C(c1ccc(N)cc1)=NN(c1ncon1)C(C)C2 (racemic) [Example 155] | 227 to 229 °C

Structure (SMILES) | melting point
COc1cc2c(cc1OC)C(c1ccc(N)cc1)=NN(c1noc(C)n1)C(C)C2 (racemic) [Example 156] | 233 to 236 °C
COc1cc2c(cc1OC)C(c1ccc(N)c(C)c1)=NN(c1ncon1)C(C)C2 (racemic) [Example 157] | 234 to 237 °C
COc1cc2c(cc1OC)C(c1ccc(N)c(Cl)c1)=NN(c1ncon1)C(C)C2 (racemic) [Example 158] | 232 to 235 °C
CCOc1cc2c(cc1OCC)C(c1ccc(N)cc1)=NN(c1ncon1)C(C)C2 (racemic) [Example 159] | 158 to 162 °C
COc1cc2c(cc1OC)C(c1ccc(N)cc1)=NN(c1ncc(C)o1)C(C)C2 (racemic) [Example 161] | 103 to 107 °C
COc1cc2c(cc1OC)C(c1ccc(N)cc1)=NN(c1ncn[nH]1)C(C)C2 (racemic) [Example 162] | 152 to 155 °C
COc1cc2c(cc1OC)C(c1ccc(N)cc1)=NN(c1nc(C)n[nH]1)C(C)C2 (racemic) [Example 163] | 164 to 167 °C
COc1cc2c(cc1OC)C(c1ccc(N)cc1)=NN(c1ncnn1C)C(C)C2 (racemic) [Example 164] | 160 to 162 °C
COc1cc2c(cc1OC)C(c1ccc(N)cc1)=NN(c1ncn(C)n1)C(C)C2 (racemic) [Example 165] | 203 to 205 °C
COc1cc2c(cc1OC)C(c1ccc(N)cc1)=NN(c1nc(C)n(C)n1)C(C)C2 (racemic) [Example 166] | 243 to 246 °C
COc1cc2c(cc1OC)C(c1ccc(N)cc1)=NN(c1nc(C)nn1C)C(C)C2 (racemic) [Example 167] | 113 to 115 °C
COc1cc2c(cc1OC)C(c1ccc(N)cc1)=NN(C(=O)N1CCOCC1)C(C)C2 (racemic) [Example 177] | 124 to 127 °C
COc1cc2c(cc1OC)C(c1ccc(N)cc1)=NN(C(=O)N1CCCCC1)C(C)C2 (racemic) [Example 178] | 129 to 132 °C
CONC(=O)N1N=C(c2ccc(N)cc2)c2cc(OC)c(OC)cc2CC1C (racemic) [Example 179] | 173 to 174 °C
CNC(=O)N1N=C(c2ccc([N+](=O)[O-])c(Cl)c2)c2cc(OC)c(OC)cc2CC1C (stereo not drawn) [75] | 194 to 195 °C
CNC(=O)N1N=C(c2ccc([N+](=O)[O-])c(Cl)c2)c2cc(OC)c(OC)cc2CC1C (stereo not drawn) [76] | 195 to 197 °C
CCNC(=O)N1N=C(c2ccc([N+](=O)[O-])cc2)c2cc(OC)c(OC)cc2CC1C (stereo not drawn) [78] | 206 to 208 °C
CCNC(=O)N1N=C(c2ccc([N+](=O)[O-])cc2)c2cc(OC)c(OC)cc2CC1C (stereo not drawn) [79] | 186 to 189 °C
COc1cc2c(cc1OC)C(c1ccc([N+](=O)[O-])cc1)=NN(c1nccs1)C(C)C2 (stereo not drawn) [Example 1] | 195 to 197 °C
COc1cc2c(cc1OC)C(c1ccc([N+](=O)[O-])cc1)=NN(c1nccs1)C(C)C2 (stereo not drawn) [Example 2] | 151 to 152 °C
COc1cc2c(cc1OC)C(c1ccc([N+](=O)[O-])c(C)c1)=NN(c1nccs1)C(C)C2 (stereo not drawn) [Example 3] | 145 to 147 °C
COc1cc2c(cc1OC)C(c1ccc([N+](=O)[O-])c(C)c1)=NN(c1nccs1)C(C)C2 (stereo not drawn) [Example 4] | 172 to 174 °C
COc1cc2c(cc1OC)C(c1ccc([N+](=O)[O-])c(Cl)c1)=NN(c1nccs1)C(C)C2 (stereo not drawn) [Example 5] | 168 to 169 °C
COc1cc2c(cc1OC)C(c1ccc([N+](=O)[O-])cc1)=NN(c1nc(C)cs1)C(C)C2 (stereo not drawn) [Example 6] | 194 to 195 °C
COc1cc2c(cc1OC)C(c1ccc([N+](=O)[O-])cc1)=NN(c1ncc(C)s1)C(C)C2 (stereo not drawn) [Example 7] | 122 to 123 °C
